Laboratory results taken from US7829589B2, “Sulfonamide compounds and uses thereof” (Elixir Pharmaceuticals, Inc., priority 2005, dated 2010).
pKi: −log10 of the molar value.

Molecular target: GHS-R (Homo sapiens, UniProt Q92847)
Experiment: GHS-R antagonist activity (Ki) in a cell based assay
Experimental: Cell-Based Activity Assays. For example, the ability of the compound to modulate accumulation of a second messenger signaling component downstream of GHS-R can be evaluated. For example, inositol phosphates (IP), as a result of Gq signaling in a mammalian cell, e.g., a Cos-7 cells. Other tissue culture cells, Xenopus oocytes, and primary cells can also be used.
Phosphatidylinositol turnover assay. One day after transfection COS-7 cells are incubated for 24 hours with 5 μCi of [^3H]-myo-inositol in 1 ml medium supplemented with 10% fetal calf serum, 2 mM glutamine and 0.01 mg/ml gentamicin per well. Cells are then washed twice in buffer, 20 mM HEPES, pH 7.4, supplemented with 140 mM NaCl, 5 mM KCl, 1 mM MgSO4, 1 mM CaCl2, 10 mM glucose, 0.05% (w/v) bovine serum; and incubated in 0.5 ml buffer supplemented with 10 mM LiCl at 37° C. for 30 min. For some assays, it is also useful to incubate the cells with adenosine deaminase ADA (200 U/mg, Boehringer Mannheim, Germany) for 30 min in a concentration of 1 U/ml.
After incubation with the compound of interest for 45 min at 37° C., cells are extracted with 10% ice-cold perchloric acid and placed on ice for 30 min. The resulting supernatants are neutralized with KOH in HEPES buffer, and [^3H]-inositol phosphate is purified on Bio-Rad AG 1-X8 anion exchange resin as described. Assays can be run in duplicate, triplicate, etc. […]

Chain of GHS-R (Q92847 whole entry, species assumed): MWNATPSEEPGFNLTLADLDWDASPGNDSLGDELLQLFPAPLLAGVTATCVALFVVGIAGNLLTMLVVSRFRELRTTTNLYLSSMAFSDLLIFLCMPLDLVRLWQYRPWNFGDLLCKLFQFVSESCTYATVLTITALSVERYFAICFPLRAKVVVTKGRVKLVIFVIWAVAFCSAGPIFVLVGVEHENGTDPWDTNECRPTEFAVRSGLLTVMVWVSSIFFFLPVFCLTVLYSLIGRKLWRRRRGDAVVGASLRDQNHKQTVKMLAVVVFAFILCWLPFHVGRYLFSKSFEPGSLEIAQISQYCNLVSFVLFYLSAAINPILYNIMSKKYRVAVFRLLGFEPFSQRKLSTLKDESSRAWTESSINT

| Compound | pKi |
| --- | --- |
| 3-Diethylamino-propane-1-sulfonic acid {(R)-1-[3-(5-bromo-pyridin-3-yl)-[1,2,4]oxadiazol-5-yl]-phenyl-propyl}-amide [Compound 103] | 6.30 to 7.00 |
| CCN(CC)CCCS(=O)(=O)N[C@H](COCc1ccccc1)c1nc(-c2ccccc2)no1 [Compound 1, 3-Diethylamino-propane-1-sulfonic acid [(R)-2-benzyloxy-1-(3-phenyl-[1,2,4]oxadiazol-5-yl)-ethyl]-amide] | 6.00 to 6.30 |
| CCN(CC)CCCS(=O)(=O)N[C@H](COCc1ccccc1)c1nc(-c2c(Cl)cccc2Cl)no1 [Compound 2, 3-Diethylamino-propane-1-sulfonic acid {(R)-2-benzyloxy-1-[3-(2,6-dichloro-phenyl)-[1,2,4]oxadiazol-5-yl]-ethyl}-amide] | > 7.00 |
| CCN(CC)CCCS(=O)(=O)N[C@H](CCc1ccccc1)c1nc(-c2cccc(Cl)c2Cl)n[nH]1 [Compound 3, 3-Diethylamino-propane-1-sulfonic acid {(R)-1-[5-(2,3-dichloro-phenyl)-2H-[1,2,4]triazol-3-yl]-3-phenyl-propyl}-amide] | > 7.00 |
| CCN(CC)CCCS(=O)(=O)N[C@H](CCc1ccccc1)c1nc(Cc2ccc(F)cc2)n[nH]1 [Compound 5, 3-Diethylamino-propane-1-sulfonic acid {(R)-1-[5-(4-fluoro-benzyl)-2H-[1,2,4]triazol-3-yl]-3-phenyl-propyl}-amide] | > 7.00 |
| CCN(CC)CCCS(=O)(=O)N[C@H](CCc1ccccc1)c1nc(-c2ccsc2)n[nH]1 [Compound 7, 3-Diethylamino-propane-1 sulfonic acid [(R)-3-phenyl-1-(5-thiophen-3-yl-2H-[1,2,4]triazol-3-yl)-propyl]-amide] | > 7.00 |
| CCN(CC)CCCS(=O)(=O)N[C@H](CCc1ccccc1)c1nc(-c2c(F)cc(F)cc2F)n[nH]1 [Compound 8, 3-Diethylamino-propane-1-sulfonic acid {(R)-3-phenyl-1-[5-(2,4,6-trifluoro-phenyl)-2H-[1,2,4]triazol-3-yl]-propyl}-amide] | > 7.00 |
| CCN(CC)CCCS(=O)(=O)N[C@H](CCc1ccccc1)c1nc(-c2ccc3c(c2)OCO3)n[nH]1 [Compound 11, 3-Diethylamino-propane-1-sulfonic acid [(R)-1-(5-benzo[1,3]dioxol-5-yl-2H-[1,2,4]triazol-3-yl)-3-phenyl-propyl]-amide] | > 7.00 |
| CCN(CC)CCCS(=O)(=O)N[C@H](CCc1ccccc1)c1nc(-c2c(Cl)cccc2Cl)no1 [Compound 12, 3-Diethylamino-propane-1-sulfonic acid {(R)-1-[3-(2,6-dichloro-phenyl)-[1,2,4]oxadiazol-5-yl]-3-phenyl-propyl}-amide] | > 7.00 |
| CCN(CC)CCCS(=O)(=O)N[C@H](CCc1ccccc1)c1nc(-c2cccc(F)c2)n[nH]1 [Compound 15, 3-Diethylamino-propane-1-sulfonic acid {(R)-1-[5-(3-fluoro-phenyl)-2H-[1,2,4]triazol-3-yl]-3-phenyl-propyl}-amide] | > 7.00 |
| CCN(CC)CCCS(=O)(=O)N[C@H](CCc1ccccc1)c1nc(-c2ccc3[nH]ccc3c2)n[nH]1 [Compound 20, 3-Diethylamino-propane-1-sulfonic acid {(R)-1-[5-(1H-indol-5-yl)-2H-{1,2,4]triazol-3-yl]-3-phenyl-propyl}-amide] | > 7.00 |
| CCN(CC)CCCS(=O)(=O)N[C@H](CCc1ccccc1)c1nc(-c2ccc(Cl)cc2)n[nH]1 [Compound 22, 3-Diethylamino-propane-1-sulfonic acid {(R)-1-[5-(4-chloro-phenyl)-2H-[1,2,4]triazol-3-yl]-3-phenyl-propyl}-amide] | > 7.00 |
| CCN(CC)CCCS(=O)(=O)N[C@H](CCc1ccccc1)c1nc(-c2ccccc2)n[nH]1 [Compound 23, 3-Diethylamino-propane-1-sulfonic acid [(R)-3-phenyl-1-(5-phenyl-2H-[1,2,4]triazol-3-yl)-propyl]-amide] | > 7.00 |
| CCN(CC)CCCS(=O)(=O)N[C@H](CCc1ccccc1)c1nc(Cc2ccc(Cl)cc2)n[nH]1 [Compound 24, 3-Diethylamino-propane-1-sulfonic acid {(R)-1-[5-(4-chloro-benzyl)-2H-[1,2,4]triazol-3-yl]-3-phenyl-propyl}-amide] | > 7.00 |
| CCN(CC)CCCS(=O)(=O)N[C@H](COCc1ccccc1)c1nc(-c2ccccc2)n[nH]1 [Compound 25, 3-Diethylamino-propane-1-sulfonic acid [(S)-2-benzyloxy-1-(5-phenyl-2H-[1,2,4]triazol-3-yl)-ethyl]-amide] | 6.30 to 7.00 |
| CCN(CC)CCS(=O)(=O)N[C@H](CCc1ccccc1)c1nc(-c2ccccc2)n[nH]1 [Compound 28, 2-Diethylamino-ethanesulfonic acid [(R)-3-phenyl-1-(5-phenyl-2H-[1,2,4]triazol-3-yl)-propyl]-amide] | > 7.00 |
| CCN(CC)CCCS(=O)(=O)N[C@H](CCc1ccccc1)c1nc(-c2ccccc2F)n[nH]1 [Compound 29, 3-Diethylamino-propane-1-sulfonic acid {(R)-1-[5-(2-fluoro-phenyl)-2H-[1,2,4]triazol-3-yl]-3-phenyl-propyl}-amide] | > 7.00 |
| CCN(CC)CCCS(=O)(=O)N[C@H](CCc1ccccc1)c1nc(Cc2ccc3c(c2)OCO3)n[nH]1 [Compound 30, 3-Diethylamino-propane-1-sulfonic acid [(R)-1-(5-benzo[1,3]dioxol-5-ylmethyl-2H-[1,2,4]triazol-3-yl)-3-phenyl-propyl]-amide] | > 7.00 |

Continued, values first:

| pKi | Compound |
| --- | --- |
| > 7.00 | CCN(CC)CCCS(=O)(=O)N[C@H](CCc1ccccc1)c1nc(-c2ccccc2C)no1 [Compound 4, 3-Diethylamino-propane-1-sulfonic acid [(R)-3-phenyl-1-(3-o-tolyl-[1,2,4]oxadiazol-5-yl)-propyl]-amide] |
| > 7.00 | CCN(CC)CCCS(=O)(=O)N[C@H](CCc1ccccc1)c1nc(-c2ccccc2)no1 [Compound 6, 3-Diethylamino-propane-1-sulfonic acid [(R)-3-phenyl-1-(3-phenyl-[1,2,4]oxadiazol-5-yl)-propyl]-amide] |
| 6.30 to 7.00 | CCN(CC)CCCS(=O)(=O)N[C@H](CCc1ccccc1)c1nc(-c2ncccc2C)no1 [Compound 9, 3-Diethylamino-propane-1-sulfonic acid {(R)-1-[3-(3-methyl-pyridin-2-yl)-[1,2,4]oxadiazol-5-yl]-3-phenyl-propyl}-amide] |
| 6.30 to 7.00 | CCN(CC)CCCS(=O)(=O)N[C@H](CCc1ccccc1)c1nc(-c2c(C)cccc2Cl)no1 [Compound 10, 3-Diethylamino-propane-1-sulfonic acid {(R)-1-[3-(2-chloro-6-methyl-phenyl)-[1,2,4]oxadiazol-5-yl]-3-phenyl-propyl}-amide] |
| 6.00 to 6.30 | CCN(CC)CCS(=O)(=O)N[C@H](CCc1ccccc1)c1nc(-c2ccccc2C)no1 [Compound 13, 2-Diethylamino-ethanesulfonic acid [(R)-3-phenyl-1-(3-o-tolyl-[1,2,4]oxadiazol-5-yl)-propyl]-amide] |
| 6.30 to 7.00 | CCN(CC)CCS(=O)(=O)N[C@H](CCc1ccccc1)c1nc(-c2ncccc2C)no1 [Compound 14, 2-Diethylamino-ethanesulfonic acid {(R)-1-[3-(3-methyl-pyridin-2-yl)-[1,2,4]oxadiazol-5-yl]-3-phenyl-propyl}-amide] |
| 6.00 to 6.30 | CCN(CC)CCCS(=O)(=O)N[C@H](CCc1ccccc1)c1nc(-c2ccccc2OC)no1 [Compound 16, 3-Diethylamino-propane-1-sulfonic acid {(R)-1-[3-(2-methoxy-phenyl)-[1,2,4]oxadiazol-5-yl]-3-phenyl-propyl}-amide] |
| 6.30 to 7.00 | CCN(CC)CCS(=O)(=O)N[C@H](CCc1ccccc1)c1nc(-c2ccccc2)no1 [Compound 17, 2-Diethylamino-ethanesulfonic acid [(R)-3-phenyl-1-(3-phenyl-[1,2,4]oxadiazol-5-yl)-propyl]-amide] |
| 6.30 to 7.00 | CCN(CC)CCS(=O)(=O)N[C@H](CCc1ccccc1)c1nc(-c2c(Cl)cccc2Cl)no1 [Compound 18, 2-Diethylamino-ethanesulfonic acid {(R)-1-[3-(2,6-dichloro-phenyl)-[1,2,4]oxadiazol-5-yl]-3-phenyl-propyl}-amide] |
| ≤ 6.00 | CCN(CC)CCS(=O)(=O)N[C@H](CCc1ccccc1)c1nc(-c2ccccc2OC)no1 [Compound 19, 2-Diethylamino-ethanesulfonic acid {(R)-1-[3-(2-methoxy-phenyl)-[1,2,4]oxadiazol-5-yl]-3-phenyl-propyl}-amide] |
| 6.30 to 7.00 | CCN(CC)CCCS(=O)(=O)N[C@@H](CCc1ccccc1)c1nc(-c2ccccc2C)no1 [Compound 21, 3-Diethylamino-propane-1-sulfonic acid [(S)-3-phenyl-1-(3-o-tolyl-[1,2,4]oxadiazol-5-yl)-propyl]-amide] |
| 6.30 to 7.00 | CCN(CC)CCS(=O)(=O)N[C@H](CCc1ccccc1)c1nc(-c2ccccn2)no1 [Compound 27, 2-Diethylamino-ethanesulfonic acid [(R)-3-phenyl-1-(3-pyridin-2-yl-[1,2,4]oxadiazol-5-yl)-propyl]-amide] |
| > 7.00 | CCN(CC)CCCS(=O)(=O)N[C@H](CCc1ccccc1)c1nc(-c2cccnc2Cl)no1 [Compound 31, 3-Diethylamino-propane-1-sulfonic acid {(R)-1-[3-(2-chloro-pyridin-3-yl)-[1,2,4]oxadiazol-5-yl]-3-phenyl-propyl}-amide] |
